Measured values published in US9610319B2, “Method of treating cancer” (Research Foundation of the City University of New York, priority 2014, dated 2017).
Bridge positions count the residues as written; N and C are the ends. Ends that are not written are not given here.

Assays:
[1] = tested on: Nereis virens (polychaete worms); assay: Bioactivity assay on polychaete worms; format: in vivo
Description: To determine if synthetic Tv1 is biologically active, the peptide was injected into polychaete worms, which are the natural prey of terebrid snails. […] Inhibition of nicotinic receptors at the neuromuscular junction can result in paralysis.
Nereis virens (polychaete worms) (less than 3.5 g) were maintained at 4° C. in salt water prior to injection. Worms were laid on a Styrofoam block and injected with an insulin syringe. A modified needle cap was used to maintain a consistent 1.5 mm depth of needle puncture. Worms were injected between the 5th and 7th segments on the ventral anterior end with the aim of targeting the ventral nerve cord. Control worms were injected with 12 μl of 0.9% normal saline solution (NSS). Lyopholized samples of Tv1 toxin were resuspended in NSS and diluted to a concentration of 20 μM which was confirmed using a ThermoScientific Nanodrop 2000c spectrophotometer. At least three worms were used for each trial—one saline control and two injected with Tv1 toxin for a total of three trials. After injection, the worms were transferred to side-by-side containers filled with room temperature salt water. The worm movements were then recorded by video in order to evaluate the effects of the toxin over a period of at least 3.5 hours. Varying temperature elicits different phenotypic responses from N. virens: water at 4° C. has an anesthetizing effect, while room temperature prompts a vigorous response. Taking the worms from 4° C. water and immersing them in room temperature water (25° C.) immediately after injection stimulates an active response from the worms, making it easier to recognize paralytic (or partially paralytic) effects induced by a novel toxin in the first minutes after injection. Worms were observed every other day for two weeks after injection. […] Each video was analyzed and annotated […] by each observer. Observations for each worm began at the time of injection. The numerical results of the two independent viewings were averaged together if results were similar, if two viewers disagreed, a third observer was employed to review the disputed section of video. Results of relative activity vs. time were plotted to quantify the phenotypic effects of the toxin and saline injection on N. virens.

[2] = tested on: cell lines IMEA7 and BNL.CL2; assay: In vitro cell viability, immunoblotting and wound healing assays on liver cancer cells; format: cell-based
Description: A novel teretoxin, Tv1 (TR(I/L)[…] (SEQ ID NO: 1)) from a terebrid snail, terebrid variegata was structurally identified and found to be biologically active. […] Tv1 was analyzed in cell viability, immunoblotting, and wound healing assays to characterize its function on liver cancer cells. […] Structural characterization of Terebra variegata peptide toxin Tv1 was accomplished using a total venom sample of 4 ng, an amount that would previously make characterization of venom components almost impossible.

BNL.1MEA.7.R.1 cells = assay: Mouse tumor study: BNL.1MEA.7.R.1 cells injected into right leg, intraperitoneal Tv1; format: in vivo, Balb/c female mice
Description: Balb/c female mice (20-35 g) were used for mouse studies. Animals were maintained on standard animal diet, in a controlled room (22±1° C. @ 35-50% RH) for a week prior to experiments. Animals were randomly divided into three groups: negative control (only PBS), high-dose and low-dose ZCD groups. Each group had five mice under sterile condition. On the day nine, the BNL.1MEA.7.R.1 cells (5 million) were injected into the right leg of each animal and allowed the tumors to grow. After two weeks the animals were checked for tumor growth and the sizes of tumors were recorded using calipers. The treatment was started after finding tumors in all groups.
The concentration of the Tv1 formulations was prepared at 0.08 mg/kg body weight (low dose) and 0.80 mg/kg body weight (high dose) for the intraperitoneal injections. Control group of animals received PBS. The drug administrations were continued for seven days and then further after a five day interval treatment was continued for another eight days and tumor sizes were measured every day.
In the high-dose group, the tumor volumes were 286.08±39.9 mm^3 at the beginning of the treatment and were 434.28±286 mm^3 after the last day which is an increase of only 52%.

Substance | % Time spent, activity at 0 ([1]; 20 μM injected, activity at 0) | % Time spent, activity between 0 and 1 ([1]; 20 μM injected, activity between 0 and 1) | % Time spent, activity between 1 and 2 ([1]; 20 μM injected, activity between 1 and 2) | % Time spent, activity between 2 and 3 ([1]; 20 μM injected, activity between 2 and 3) | selectivity tumor cell versus normal cells in vitro ([2]; cell lines IMEA7 and BNL.CL2) | death of normal versus cancer cells compared to sorafenib and doxorubicin ([2]; cell viability, immunoblotting, wound healing assays) | effect on growth of tumor (BNL.1MEA.7.R.1 cells; both low and high doses) | tumor volume after the last day (BNL.1MEA.7.R.1 cells; high dose 0.80 mg/kg body weight, intraperitoneal, after the last day) | tumor volume at the beginning of the treatment (BNL.1MEA.7.R.1 cells; high dose 0.80 mg/kg body weight, intraperitoneal, beginning of treatment) | increase of tumor volume (BNL.1MEA.7.R.1 cells; high dose 0.80 mg/kg, beginning to last day (negative control 418%)) | average tumor volume at the beginning of the treatment (BNL.1MEA.7.R.1 cells; low dose 0.08 mg/kg body weight, intraperitoneal, day one) | average tumor volume at the end of treatment (BNL.1MEA.7.R.1 cells; low dose 0.08 mg/kg body weight, intraperitoneal, end of treatment) | increase of average tumor volume (BNL.1MEA.7.R.1 cells; low dose 0.08 mg/kg, day one to end of treatment (negative control 418%)) | selectivity tumor cell versus normal cells in vivo (BNL.1MEA.7.R.1 cells; mice models expressing IMEA7 tumor cells subcutaneously) | body weights throughout the treatment period (BNL.1MEA.7.R.1 cells; monitored throughout treatment) | phenotypic effect of injection into worms ([1]; injections of 20 μM)
TR(I/L)CCGCYWNGSKDVCSQSCC [Tv1, novel teretoxin from terebrid snail Terebra variegata, chemically synthesized; Ile or Leu at position 3] | 0.995% | 74.47% | 19.98% | 4.55% | selectively targets tumor cell versus normal cells | prevented the death of normal versus cancer cells at high instance | effective in significantly decreasing the growth of tumor | 434.28±286 mm^3 | 286.08±39.9 mm^3 | 52% | 180±36.74 mm^3 | 485±175.07 mm^3 | 170% | selectively targets tumor cell versus normal cells | not significantly changed | 
TRICCGCYWNGSKDVCSQSCC (disulfide 7-16, 4-20, 5-21; listed as Terebra variegata) [Tv1 (Ile), Tv1 peptide with Ile at the third position] |  |  |  |  |  |  |  |  |  |  |  |  |  |  |  | partial paralysis
